# Values joined by “and” are separate entries in the source; they are usually repeats but may differ in a detail not shown here. Equal entries are not always repeated.
# Legend:
# Assay in all cases: radiometric filter-binding kinase assay, Kinase HotSpot
# Conditions in all cases: compound 0.5 µM; ATP 10 µM
# DAPK3 (human) = DAPK3 (human) (UniProt O43293)
# PAK7 (human) = PAK7 (human) (UniProt Q9P286)
# AXL (human) = AXL (human) (UniProt P30530)
# EPHA4 (human) = EPHA4 (human) (UniProt P54764)
# PRKD1 (human) = PRKD1 (human) (UniProt Q15139)
# EPHB2 (human) = EPHB2 (human) (UniProt P29323)
# RPS6KA3 KD1 KD2 (human) = RPS6KA3 KD1 KD2 (human) (UniProt P51812)
# PIM3 (human) = PIM3 (human) (UniProt Q86V86)
# PRKD3 (human) = PRKD3 (human) (UniProt O94806)
# PRKD3 (human), sequence (O94806 whole entry, looked up): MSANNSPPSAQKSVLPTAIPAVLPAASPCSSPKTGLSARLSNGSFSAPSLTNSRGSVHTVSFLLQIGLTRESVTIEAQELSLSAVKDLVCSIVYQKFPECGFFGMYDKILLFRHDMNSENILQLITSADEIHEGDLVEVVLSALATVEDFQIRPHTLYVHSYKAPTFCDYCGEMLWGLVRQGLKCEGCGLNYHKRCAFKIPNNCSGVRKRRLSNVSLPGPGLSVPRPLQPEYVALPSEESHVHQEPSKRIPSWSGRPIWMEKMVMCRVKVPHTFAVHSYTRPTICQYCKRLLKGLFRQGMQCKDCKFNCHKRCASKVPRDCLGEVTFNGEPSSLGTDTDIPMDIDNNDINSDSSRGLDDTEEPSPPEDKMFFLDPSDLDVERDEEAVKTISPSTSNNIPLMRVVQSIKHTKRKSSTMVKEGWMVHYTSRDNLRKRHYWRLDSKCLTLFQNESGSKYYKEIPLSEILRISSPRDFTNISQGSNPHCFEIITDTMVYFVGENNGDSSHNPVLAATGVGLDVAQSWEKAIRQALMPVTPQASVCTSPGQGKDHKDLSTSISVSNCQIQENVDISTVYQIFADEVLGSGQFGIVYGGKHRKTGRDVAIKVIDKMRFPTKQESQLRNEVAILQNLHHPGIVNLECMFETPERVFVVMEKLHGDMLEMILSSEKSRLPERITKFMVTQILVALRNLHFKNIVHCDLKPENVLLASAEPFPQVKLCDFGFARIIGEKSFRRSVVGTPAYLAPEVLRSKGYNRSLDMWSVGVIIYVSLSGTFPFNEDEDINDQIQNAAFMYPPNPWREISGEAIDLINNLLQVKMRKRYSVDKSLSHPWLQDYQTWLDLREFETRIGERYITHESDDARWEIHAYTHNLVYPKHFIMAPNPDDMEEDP
# PBK (human) = PBK (human) (UniProt Q96KB5)
# PBK (human), sequence (Q96KB5 whole entry, looked up): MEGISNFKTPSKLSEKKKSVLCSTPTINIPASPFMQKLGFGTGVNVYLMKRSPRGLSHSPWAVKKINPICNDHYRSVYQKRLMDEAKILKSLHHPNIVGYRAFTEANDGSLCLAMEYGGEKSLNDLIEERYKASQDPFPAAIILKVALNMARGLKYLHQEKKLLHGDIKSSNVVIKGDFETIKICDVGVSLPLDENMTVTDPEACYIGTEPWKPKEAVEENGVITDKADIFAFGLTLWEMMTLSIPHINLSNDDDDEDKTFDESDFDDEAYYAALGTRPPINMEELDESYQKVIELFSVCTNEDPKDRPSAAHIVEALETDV
# MAP2K2 (human) = MAP2K2 (human) (UniProt P36507)
# MAP2K2 (human), sequence (P36507 whole entry, looked up): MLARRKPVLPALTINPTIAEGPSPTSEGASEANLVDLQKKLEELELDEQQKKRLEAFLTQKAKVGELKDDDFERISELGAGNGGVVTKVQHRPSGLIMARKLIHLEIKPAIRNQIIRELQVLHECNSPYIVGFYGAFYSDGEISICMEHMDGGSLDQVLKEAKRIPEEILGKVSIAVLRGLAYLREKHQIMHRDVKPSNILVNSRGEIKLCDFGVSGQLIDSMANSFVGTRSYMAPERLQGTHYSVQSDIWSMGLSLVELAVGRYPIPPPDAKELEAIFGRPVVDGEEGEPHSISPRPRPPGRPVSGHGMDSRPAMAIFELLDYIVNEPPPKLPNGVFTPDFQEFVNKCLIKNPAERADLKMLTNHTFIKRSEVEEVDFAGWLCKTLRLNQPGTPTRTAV
# MAPKAPK3 (human) = MAPKAPK3 (human) (UniProt Q16644)
# MAPKAPK3 (human), sequence (Q16644 whole entry, looked up): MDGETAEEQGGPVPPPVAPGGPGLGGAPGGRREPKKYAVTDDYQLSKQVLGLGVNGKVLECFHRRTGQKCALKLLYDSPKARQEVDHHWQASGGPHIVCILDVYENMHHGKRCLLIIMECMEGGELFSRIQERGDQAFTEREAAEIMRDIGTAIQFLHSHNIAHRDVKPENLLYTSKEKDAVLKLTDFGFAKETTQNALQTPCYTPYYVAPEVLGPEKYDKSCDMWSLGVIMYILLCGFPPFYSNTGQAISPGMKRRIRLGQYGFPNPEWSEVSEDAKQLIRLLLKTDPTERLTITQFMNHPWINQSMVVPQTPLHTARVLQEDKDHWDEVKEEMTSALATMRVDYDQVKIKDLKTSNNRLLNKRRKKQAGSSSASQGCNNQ
# LCK (human) = LCK (human) (UniProt P06239)
# LCK (human), sequence (P06239 whole entry, looked up): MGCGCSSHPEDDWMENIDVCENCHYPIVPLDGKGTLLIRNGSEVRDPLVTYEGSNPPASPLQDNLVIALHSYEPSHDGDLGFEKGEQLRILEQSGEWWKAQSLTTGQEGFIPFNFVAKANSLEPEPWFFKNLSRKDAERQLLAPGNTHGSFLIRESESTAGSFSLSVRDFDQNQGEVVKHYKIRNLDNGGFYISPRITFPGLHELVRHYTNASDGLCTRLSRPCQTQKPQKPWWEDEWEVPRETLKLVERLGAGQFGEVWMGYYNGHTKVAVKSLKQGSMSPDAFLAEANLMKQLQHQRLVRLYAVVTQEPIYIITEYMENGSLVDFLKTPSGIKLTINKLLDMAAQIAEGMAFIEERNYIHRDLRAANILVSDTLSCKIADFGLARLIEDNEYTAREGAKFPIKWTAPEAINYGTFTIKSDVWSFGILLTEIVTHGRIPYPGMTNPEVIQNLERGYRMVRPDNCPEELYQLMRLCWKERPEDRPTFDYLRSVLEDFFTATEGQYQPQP
# MAP3K9 (human) = MAP3K9 (human) (UniProt P80192)
# YES1 (human) = YES1 (human) (UniProt P07947)
# DMPK (human) = DMPK (human) (UniProt Q09013)
# BMX (human) = BMX (human) (UniProt P51813)
# CDK1 CCNB1 (human) = CDK1 CCNB1 (human) (UniProt P06493+P14635)
# NLK (human) = NLK (human) (UniProt Q9UBE8)
# CAMKK1 (human) = CAMKK1 (human) (UniProt Q8N5S9)
# LRRK2 (human) = LRRK2 (human) (UniProt Q5S007)
# CDK5 CDK5R1 p25 (human) = CDK5 CDK5R1 p25 (human) (UniProt Q00535+Q15078)
# CSF1R (human) = CSF1R (human) (UniProt P07333)
# CSF1R (human), sequence (P07333 whole entry, looked up): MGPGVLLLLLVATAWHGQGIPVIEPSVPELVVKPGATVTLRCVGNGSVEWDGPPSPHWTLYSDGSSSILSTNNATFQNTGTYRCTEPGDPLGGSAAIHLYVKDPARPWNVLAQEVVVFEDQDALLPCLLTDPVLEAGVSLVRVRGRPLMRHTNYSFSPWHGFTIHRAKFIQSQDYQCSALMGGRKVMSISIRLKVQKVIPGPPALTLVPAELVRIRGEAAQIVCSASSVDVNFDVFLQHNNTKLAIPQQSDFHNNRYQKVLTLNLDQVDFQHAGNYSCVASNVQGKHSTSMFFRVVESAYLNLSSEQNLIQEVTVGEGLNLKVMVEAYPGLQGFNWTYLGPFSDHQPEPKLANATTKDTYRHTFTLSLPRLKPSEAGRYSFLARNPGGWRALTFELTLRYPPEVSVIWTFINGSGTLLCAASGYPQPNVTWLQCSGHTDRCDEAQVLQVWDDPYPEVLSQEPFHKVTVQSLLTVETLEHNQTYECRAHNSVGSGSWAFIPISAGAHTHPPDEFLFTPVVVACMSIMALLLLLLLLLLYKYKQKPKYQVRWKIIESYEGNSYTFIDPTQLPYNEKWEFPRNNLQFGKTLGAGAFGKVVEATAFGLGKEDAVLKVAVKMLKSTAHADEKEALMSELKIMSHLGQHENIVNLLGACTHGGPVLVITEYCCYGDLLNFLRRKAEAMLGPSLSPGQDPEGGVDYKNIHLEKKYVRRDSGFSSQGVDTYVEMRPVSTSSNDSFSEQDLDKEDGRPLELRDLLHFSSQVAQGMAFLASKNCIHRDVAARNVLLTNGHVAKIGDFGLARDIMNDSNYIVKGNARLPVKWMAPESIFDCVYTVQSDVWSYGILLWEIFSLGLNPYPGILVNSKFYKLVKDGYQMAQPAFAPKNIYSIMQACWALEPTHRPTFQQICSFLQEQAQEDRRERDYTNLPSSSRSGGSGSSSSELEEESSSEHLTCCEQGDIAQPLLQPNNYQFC
# ADRBK2 (human) = ADRBK2 (human) (UniProt P35626)
# ACVR1B (human) = ACVR1B (human) (UniProt P36896)
# FLT3 (human) = FLT3 (human) (UniProt P36888)
# STK24 (human) = STK24 (human) (UniProt Q9Y6E0)
# STK24 (human), sequence (Q9Y6E0 whole entry, looked up): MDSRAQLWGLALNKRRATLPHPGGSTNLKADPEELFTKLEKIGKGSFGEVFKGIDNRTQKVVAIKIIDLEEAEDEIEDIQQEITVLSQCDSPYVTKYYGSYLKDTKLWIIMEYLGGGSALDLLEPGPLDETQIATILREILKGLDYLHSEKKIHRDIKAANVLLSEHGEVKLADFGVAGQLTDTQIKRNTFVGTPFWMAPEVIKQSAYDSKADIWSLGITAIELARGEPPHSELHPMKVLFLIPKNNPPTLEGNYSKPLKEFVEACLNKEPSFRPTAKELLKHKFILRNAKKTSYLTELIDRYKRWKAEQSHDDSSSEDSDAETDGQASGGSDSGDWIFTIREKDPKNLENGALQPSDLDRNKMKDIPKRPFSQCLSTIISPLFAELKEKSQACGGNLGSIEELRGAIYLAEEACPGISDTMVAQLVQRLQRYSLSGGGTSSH
# ULK2 (human) = ULK2 (human) (UniProt Q8IYT8)
# AKT3 (human) = AKT3 (human) (UniProt Q9Y243)
# LIMK1 (human) = LIMK1 (human) (UniProt P53667)
# RPS6KA5 KD2 (human) = RPS6KA5 KD2 (human) (UniProt O75582)
# GSG2 (human) = GSG2 (human) (UniProt Q8TF76)
# MAPK13 (human) = MAPK13 (human) (UniProt O15264)
# MYLK2 (human) = MYLK2 (human) (UniProt Q9H1R3)
# MARK3 (human) = MARK3 (human) (UniProt P27448)
# MARK3 (human), sequence (P27448 whole entry, looked up): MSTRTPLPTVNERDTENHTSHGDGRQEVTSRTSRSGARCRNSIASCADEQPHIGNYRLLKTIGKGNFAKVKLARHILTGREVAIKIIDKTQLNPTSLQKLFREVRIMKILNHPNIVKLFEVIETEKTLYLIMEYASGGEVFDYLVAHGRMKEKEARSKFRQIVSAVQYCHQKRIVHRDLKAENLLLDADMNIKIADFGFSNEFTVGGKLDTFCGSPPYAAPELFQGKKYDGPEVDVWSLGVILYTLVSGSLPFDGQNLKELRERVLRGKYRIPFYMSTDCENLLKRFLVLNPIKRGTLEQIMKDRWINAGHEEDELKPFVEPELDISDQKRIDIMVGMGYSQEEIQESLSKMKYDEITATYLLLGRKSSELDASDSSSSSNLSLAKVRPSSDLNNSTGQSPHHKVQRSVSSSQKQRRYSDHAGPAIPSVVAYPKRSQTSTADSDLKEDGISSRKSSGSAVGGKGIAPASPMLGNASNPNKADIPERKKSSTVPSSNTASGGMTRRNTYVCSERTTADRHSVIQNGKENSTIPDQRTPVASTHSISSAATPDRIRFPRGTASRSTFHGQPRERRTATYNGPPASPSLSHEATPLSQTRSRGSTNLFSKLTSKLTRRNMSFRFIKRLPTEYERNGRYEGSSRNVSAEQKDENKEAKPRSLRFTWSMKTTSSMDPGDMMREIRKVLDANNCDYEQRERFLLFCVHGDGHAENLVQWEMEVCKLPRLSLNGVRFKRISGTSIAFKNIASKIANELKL
# PHKG2 (human) = PHKG2 (human) (UniProt P15735)
# BRSK1 (human) = BRSK1 (human) (UniProt Q8TDC3)
# DYRK4 (human) = DYRK4 (human) (UniProt Q9NR20)
# MAP2K1 (human) = MAP2K1 (human) (UniProt Q02750)
# EPHB1 (human) = EPHB1 (human) (UniProt P54762)
# LYN (human) = LYN (human) (UniProt P07948)
# INSR (human) = INSR (human) (UniProt P06213)
compound,measurement,setting,value
Nc1nc(Nc2ccc(S(N)(=O)=O)cc2)nn1C(=S)Nc1c(F)cccc1F,residual activity,DAPK3 (human),94.2%
same,residual activity,PAK7 (human),43.8%
same,residual activity,AXL (human),34.2%
same,residual activity,EPHA4 (human),54.8%
same,residual activity,PRKD1 (human),7.79%
same,residual activity,EPHB2 (human),81.4%
same,residual activity,RPS6KA3 KD1 KD2 (human),-0.692%
same,residual activity,PIM3 (human),89.1%
same,residual activity,PRKD3 (human),7.37%
same,residual activity,PBK (human),105%
same,residual activity,MAP2K2 (human),96.6%
same,residual activity,MAPKAPK3 (human),89.6%
same,residual activity,LCK (human),23.6%
same,residual activity,MAP3K9 (human),-0.373%
same,residual activity,YES1 (human),10.5%
same,residual activity,DMPK (human),78.4%
same,residual activity,BMX (human),77.5%
same,residual activity,CDK1 CCNB1 (human),-1.78%
same,residual activity,NLK (human),45.1%
same,residual activity,CAMKK1 (human),36%
same,residual activity,LRRK2 (human),1.33%
same,residual activity,CDK5 CDK5R1 p25 (human),0.156%
same,residual activity,CSF1R (human),10.6%
same,residual activity,ADRBK2 (human),88%
same,residual activity,ACVR1B (human),92.2%
same,residual activity,FLT3 (human),1.07%
same,residual activity,STK24 (human),2.88%
same,residual activity,ULK2 (human),4.73%
same,residual activity,AKT3 (human),96.4%
same,residual activity,LIMK1 (human),-0.611%
same,residual activity,RPS6KA5 KD2 (human),68.1%
same,residual activity,GSG2 (human),85.3%
same,residual activity,MAPK13 (human),77.1%
same,residual activity,MYLK2 (human),66.6%
same,residual activity,MARK3 (human),0.29%
same,residual activity,PHKG2 (human),95.5%
same,residual activity,BRSK1 (human),2.61%
same,residual activity,DYRK4 (human),96.5%
same,residual activity,MAP2K1 (human),94.6%
same,residual activity,EPHB1 (human),19.4%
CCN1/C(=C/C(C)=O)Sc2ccc(OC)cc21,residual activity,DAPK3 (human),98.7%
same,residual activity,LYN (human),101% and 94.4%
same,residual activity,PAK7 (human),84.7%
same,residual activity,AXL (human),105%
same,residual activity,EPHA4 (human),95.5%
same,residual activity,PRKD1 (human),78.1%
same,residual activity,EPHB2 (human),98.3%
same,residual activity,RPS6KA3 KD1 KD2 (human),102%
same,residual activity,PIM3 (human),47.4%
same,residual activity,PRKD3 (human),62.5%
same,residual activity,PBK (human),94.8%
same,residual activity,MAP2K2 (human),86.4%
same,residual activity,MAPKAPK3 (human),90.1%
same,residual activity,LCK (human),99.4%
same,residual activity,MAP3K9 (human),98.8%
same,residual activity,YES1 (human),91.8%
same,residual activity,INSR (human),101%
same,residual activity,DMPK (human),101%
same,residual activity,BMX (human),105%
same,residual activity,CDK1 CCNB1 (human),93.2%
same,residual activity,NLK (human),103%
same,residual activity,CAMKK1 (human),105%
same,residual activity,LRRK2 (human),98.1%
same,residual activity,CDK5 CDK5R1 p25 (human),87.9%
same,residual activity,CSF1R (human),93.8%
same,residual activity,ADRBK2 (human),82.9%
same,residual activity,ACVR1B (human),109%
same,residual activity,FLT3 (human),76.1%
same,residual activity,STK24 (human),82.2%
same,residual activity,AKT3 (human),96.1%
same,residual activity,LIMK1 (human),108%
same,residual activity,RPS6KA5 KD2 (human),87.4%
same,residual activity,GSG2 (human),25%
same,residual activity,MAPK13 (human),105%
same,residual activity,MYLK2 (human),95.1%
same,residual activity,MARK3 (human),100%
same,residual activity,PHKG2 (human),94.6%
same,residual activity,BRSK1 (human),89.4%
same,residual activity,DYRK4 (human),82.3%
same,residual activity,MAP2K1 (human),98.7%
same,residual activity,EPHB1 (human),90.6%
O=C1Cc2c([nH]c3ccc([N+](=O)[O-])cc23)-c2ccccc2N1,residual activity,DAPK3 (human),103%
same,residual activity,PAK7 (human),71.4%
same,residual activity,AXL (human),100%
same,residual activity,EPHA4 (human),96.5%
same,residual activity,PRKD1 (human),95.6%
same,residual activity,EPHB2 (human),101%
same,residual activity,RPS6KA3 KD1 KD2 (human),70.6%
same,residual activity,PIM3 (human),62.3%
same,residual activity,PRKD3 (human),88.2%
same,residual activity,PBK (human),85.1%
same,residual activity,MAP2K2 (human),92.5%
same,residual activity,MAPKAPK3 (human),97%
same,residual activity,LCK (human),81.2%
same,residual activity,MAP3K9 (human),10.5%
same,residual activity,YES1 (human),42.3%
same,residual activity,INSR (human),101%
same,residual activity,DMPK (human),91.6%
same,residual activity,BMX (human),110%
same,residual activity,CDK1 CCNB1 (human),23.2%
same,residual activity,NLK (human),95.5%
same,residual activity,CAMKK1 (human),91.7%
same,residual activity,LRRK2 (human),96.5%
same,residual activity,CDK5 CDK5R1 p25 (human),10.5%
same,residual activity,CSF1R (human),51%
same,residual activity,ADRBK2 (human),88.9%
same,residual activity,ACVR1B (human),109%
same,residual activity,FLT3 (human),19.7%
same,residual activity,STK24 (human),66.4%
same,residual activity,ULK2 (human),72.7%
same,residual activity,AKT3 (human),94.1%
same,residual activity,LIMK1 (human),94.3%
same,residual activity,RPS6KA5 KD2 (human),107%
same,residual activity,GSG2 (human),106%
same,residual activity,MYLK2 (human),94.8%
same,residual activity,MARK3 (human),67.7%
same,residual activity,PHKG2 (human),101%
same,residual activity,BRSK1 (human),39.7%
same,residual activity,DYRK4 (human),106%
same,residual activity,MAP2K1 (human),92.6%
same,residual activity,EPHB1 (human),112%
